Experimental data taken from patent publication US7094807B2, “Substituted aryl thioureas and related compounds; inhibitors of viral replication” (Achillion Pharmaceuticals, Inc., priority 2002, dated 2006).

test system: HCV replicon; experiment: HCV replicon assay (NPT ELISA in HCV replicon-containing cells); type: cell-based; conditions: Hepatitis C virus, 72 h; HCV replicon-containing Huh-7 cells; three days incubation; read-out: EC50 for inhibition of replication of the HCV replicon
Method: The compounds claimed herein were tested for the ability to inhibit viral replication of the Hepatitis C replicon in cultured cells in which the HCV replicon construct has been incorporated. The HCV replicon system was described by Bartenschlager, et. al (Science, 285, pp. 110-113 (1999)). The replicon system is predictive of in vivo anti-HCV activity; compounds that are active in humans uniformly evidence activity in the replicon assay.
In this assay HCV replicon containing cells are treated with different concentrations of the test compound to ascertain the ability of the test compound to suppress replication of the HCV replicon. As a positive control, HCV replicon-containing cells are treated with different concentrations of interferon alpha, a known inhibitor of HCV replication. The replicon assay system includes Neomycin Phosphotransferase (NPT) as a component of the replicon itself in order to detect the transcription of replicon gene products in the host cell. Cells in which the HCV replicon is actively replicating have high levels of NPT; the level of NPT is proportional to HCV replication. […] The NPT level of each sample is measured using a captured ELISA.
A protocol for testing compounds for the ability to inhibit viral replication of the Hepatitis C replicon cultured cells in which the replicon construct has been incorporated, follows.
The HCV replicon contains, 5-′3′, the HCV-IRES, the neomycin phosphotransferase (neo) gene, the IRES of encephalomyocarditis virus, which directs translation of HCV sequences NS3 to NS5B, and the 3′-NTR. The sequence of the HCV replicon has been deposited in GenBank (Accession no. AJ242652).
The replicon is transfected into Huh-7 cells using standard methods such as electroporation.
The equipment and materials include, but are not limited to, Huh-7 HCV replicon-containing cells, maintenance media (DMEM (Dulbecco's modified Eagle media) supplemented with 10% FBS, L-glutamine, non-essential amino acids, penicillin (100 units/ml), streptomycin (100 micrograms/ml), and 500 micrograms/ml of Geneticin G418), screening media (DMEM supplemented with 10% FBS, L-glutamine, and non-essential amino acid, penicillin (100 units/ml) and streptomycin (100 micrograms/ml)), 96 well tissue culture plates (flat bottom), 96 well plates (U bottom for drug dilution), Interferon alpha for positive control, fixation reagent (such as methanol: acetone), primary antibody (rabbit anti-NPTII), secondary antibody: Eu-N1 l, and enhancement solution.
HCV replicon-containing cells are rinsed with once PBS once; 2 mls of trypsin is added. Cells are incubated at 37° C. in a 5% CO2 incubator for 3-5 minutes. 10 mls of complete medium is added to stop the reaction. Cells are blown gently, put into a 15 ml tube, and spun at 1200 rpm for four minutes. The trypsin/medium solution is removed and 5 mls of medium (500 ml DMEM (high glucose)) from BRL catalog #12430-054; 50 mls 10% FBS, […] (50 mg/ml, BRL 10131-035), 5 ml MEM non-essential amino acid (100×BRL #11140-050) and 5 ml pen-strep (BRL #15140-148) is added. The cells and media are mixed carefully
Cells are plated with screening medium (500 ml DMEM (BRL #21063-029), 50 ml FBS (BRL #10082-147) and 5 ml MEM non-essential amino acid (BRL #11140-050) at 6000-7500 cells/100 μl/well of 96 well plate (6-7.5×10^5 cells/10 ml/plate). Plates are placed into 37° C. 5% CO2 incubator overnight.
The following morning, drugs (test compounds or interferon alpha) are diluted in 96 well U bottom plates with media or DMSO/media, depending on the final concentration chosen for screening. Generally for 6 concentrations of each test compounds ranging from 10 micromolar to 0.03 micromolar are applied. 100 μl of the test compound dilution is placed in wells of the 96 well plate containing the HCV replicon cells. Media without drug is added to some wells as a negative controls. DMSO is known to affect cell growth. […]

| Structure (SMILES) | EC50 |
| --- | --- |
| O=C(NC(=S)Nc1cccc(OCc2ccccc2)c1)C1Cc2ccccc2O1 (stereo not shown) [Compound 39, 1-(3-Benzyloxy-phenyl)-3-(2,3-dihydro-benzofuran-2-carbonyl)-thiourea] | < 30 µM |
| O=C(NC(=S)Nc1cccc(OCc2ccccc2)c1)C1COc2ccccc2O1 (stereo not shown) [Compound 40, 1-(3-Benzyloxy-phenyl)-3-(2,3-dihydro-benzo[1,4]dioxine-2-carbonyl)-thiourea] | < 30 µM |
| O=C(NC(=S)Nc1cccc(OCc2ccccc2)c1)C1CCc2ccccc2O1 (stereo not shown) [Compound 41, 1-(3-Benzyloxy-phenyl)-3-(chroman-2-carbonyl)-thiourea] | < 30 µM |
| O=C(NC(=S)Nc1cccc(OCc2ccccc2)c1)c1ccc2ccccc2n1 [Compound 42, 1-(3-Benzyloxy-phenyl)-3-(quinoline-2-carbonyl)-thiourea] | < 30 µM |
